The source of these data is patent US20240417403A1, “CRYSTALLINE FORMS OF QUINAZOLINE DERIVATIVES, PREPARATION, COMPOSITION AND USE THEREOF” (Hoffmann-La Roche Inc., priority 2021, published 2024).

What all share (type): physicochemical
Series [1] in a line: Form change on storage/exposure at ambient conditions (XRPD). Particulars: storage / exposure at ambient condition (Freebase Type E: 30 m). On the procedure: About 15 mg of Fumarate Type A of compound (I) was suspended in 0.5 mL of H2O in an HPLC vial. The suspension was magnetically stirred at a speed of about 1000 rpm at RT for 9 days. The wet solids were isolated to afford Fumarate Type C of compound (I) (wet sample was analyzed). […] XRPD patterns and data were shown in FIG. 10 and Table 10, respectively.
About 60 mg of Amorphous Freebase of compound (I) was suspended in 2 mL of THF/H2O (1:4, v/v) in an HPLC vial. The suspension was magnetically stirred at a speed of about 1000 rpm at 5° C. for 4 days. The solids were isolated via centrifugation and dried at ambient condition for about 2 hours. After sweeping the solids by N2 for 20 min at 30° C. Freebase Type E of compound (I) was obtained.

A short description of series [2]: Equilibrium solubility in H2O. To be noted: 37° C., stirred 24 hours. On the procedure: (§1) An Agilent 1260 HPLC instrument was utilized and detailed chromatographic conditions for purity and solubility analysis were listed in Table 6.
About 5˜10 mg of solids were suspended in H2O to get a mixture. The suspensions were stirred for 24 hours, followed by centrifugation and filtration to obtain supernatants for HPLC test.

Another series is described as follows: Hygroscopicity by DVS. On the procedure:
DVS is measured via a SMS (Surface Measurement Systems) DVS Intrinsic. The relative humidity at 25° C. is calibrated against deliquescence point of LiCl, Mg(NO3)2 and KCl.
DVS isotherm plot was collected at 25° C. to investigate the selected solid forms stability as a function of humidity. Compared with amorphous freebase, the hygroscopicity of Freebase Type B, Fumarate Type A, Fumarate Type B and Fumarate Type E was lower under 80% RH/25° C.

The nature of series [3]: Kinetic solubility in FaSSIF. Particulars: 37° C. On the procedure: as §1
Kinetic solubility of amorphous freebase and Fumarate Type B/E was measured in FaSSIF to evaluate the solubility. […] After centrifugation, supernatants were collected for HPLC tests.

Series [4] in a line: Solid state stability, 40° C./75% RH/open for 1 month (XRPD, HPLC purity). Particulars: for Purity/Initial by HPLC area % / Form Change: 40° C., 75% RH, open; for Form Change: by XRPD; for Purity change by HPLC (chemical stability) compared with amorphous freebase: 40° C./75% RH; for Solid form change by XRPD (physical stability): 40° C./75% RH/open. On the procedure: as §1
To evaluate the solid state stability of the selected forms (amorphous freebase, Freebase Type F, Fumarate Type A and Fumarate Type B) samples were stored under 40° C./75% RH/open for 1 month. Stability samples were characterized by XRPD to check any solid form change and by HPLC to check purity change.

Series [5] is described as follows: Contact angle against water (wettability). Here is the method:
The wettability of the solid forms was evaluated by the contact angle against water.

Series [6] can be described thus: Angle of repose (flowability). The text has this: Form the angle of repose on a fixed base with a retaining lip to retain a layer of powder on the base. Carefully build up a symmetrical cone of powder. Determine the angle of repose by measuring the height (h) and base radius (r) of the cone of powder and calculating the angle of repose a from the following equation α=tan^−1(h/r).
(§2) The results of amorphous freebase, Freebase Type F, Fumarate Type B and Fumarate Type E for flowability and compressibility were summarized in Table 30. Generally, powders with smaller Karl index would show better compressibility and flowability. And powders with smaller angle of repose would show better flowability.

The nature of series [7]: Bulk density, tap density and Carr index (flowability and compressibility). On the procedure: Bulk density was determined by adding appropriate amount (m) of material into a 5 mL graduate cylinder and recording its apparent volume (v0). The bulk density was obtained by dividing the amount of material by its apparent volume of the unsettled material (ρ0=m/v0). For tap density, the cylinder was then tapped for 200 times. The tap density was then calculated by dividing the amount of material by its final tapped volume (ρ1=m/v1). Carr index=(ρ1−ρ0)/ρ1.
as §2

Series [8] in a line: Equilibrium solubility in pH 4.5 buffer. Particulars: 37° C., stirred 24 hours. Here is the method: as §1
About 5˜10 mg of solids were suspended in pH 4.5 buffer to get a mixture. The suspensions were stirred for 24 hours, followed by centrifugation and filtration to obtain supernatants for HPLC test.

The nature of series [9]: Equilibrium solubility in pH 6.8 buffer. Particulars: 37° C., stirred 24 hours. Here is the method: as §1
About 5˜10 mg of solids were suspended in pH 6.8 buffer to get a mixture. The suspensions were stirred for 24 hours, followed by centrifugation and filtration to obtain supernatants for HPLC test.

Series [10] in a line: TGA and DSC/mDSC thermal analysis (characterization of forms). Particulars: for TGA weight loss (%, temp.): to 150° C. On the procedure:
In salt screening and evaluation and in polymorph study, TGA was performed using a TA Q500, TA Q5000 or Discovery 5500 TGA from TA Instruments. DSC or mDSC was performed using a TA Q200/Q2000 or Discovery 2500 DSC from TA Instruments.

The nature of series [11]: Mechanical stability (XRPD form change after grinding and tableting). On the procedure:
Mechanical stability of the solid forms was evaluated by monitoring the XRPD form change after grinding (˜5 min) and tableting (˜234 Mpa).

The next series can be described thus: Crystal habit by PLM. The text has this: The PLM images were captured with Carl Zeiss Axio Scope. A1 microscope at RT.
PLM was used to observe the crystal habit of the particles (amorphous freebase and Fumarate Type A).

Take `COc1ccc2ncnc(Nc3ccc(Oc4cc5ncnn5cn4)c(C)c3)c2c1O[C@@H]1CCN(C)CC1(F)F` [Freebase Type E, (R)-N-(4-([1,2,4]triazolo[1,5-c]pyrimidin-7-yloxy)-3-methylphenyl)-5-((3,3-difluoro-1-methylpiperidin-4-yl)oxy)-6-methoxyquinazolin-4-amine]: the “Form conversion at ambient conditions” value in series [1] was “converted to Freebase Type C”.
Consider `COc1ccc2ncnc(Nc3ccc(Oc4cc5ncnn5cn4)c(C)c3)c2c1O[C@@H]1CCN(C)CC1(F)F` [Fumarate Type B, (R)-N-(4-([1,2,4]triazolo[1,5-c]pyrimidin-7-yloxy)-3-methylphenyl)-5-((3,3-difluoro-1-methylpiperidin-4-yl)oxy)-6-methoxyquinazolin-4-amine], for which the “Solubility in H2O” value in series [2] is at least 5200 µg/mL. The “Weight change at 80% RH/25° C. by DVS” value in the series “Hygroscopicity by DVS” worked out at 2.1%. Further, the “Solubility in FaSSIF” value in series [3] (timepoint 1 h) was at least 390 µg/mL. The “Solubility in FaSSIF” value in series [3] (timepoint 2 h) was at least 390 µg/mL. The “Solubility in FaSSIF” value in series [3] (timepoint 24 h) is at least 390 µg/mL. In addition, in series [4], the “Purity/Initial by HPLC area %” value worked out at 99.6%, the “Form Change” value is listed as “No”, the “Purity change by HPLC (chemical stability) compared with amorphous freebase” value is reported as “lower purity change” and the “Solid form change by XRPD (physical stability)” value is listed as “no form change”. The compound also gave a Contact angle in [5] of 29.0°. The compound further yielded an Angle of repose in series [6] of 26.6°. Moreover, the Bulk density in series [7] came to 0.36 g/mL. The compound further displayed a Carr index in series [7] ((ρ1−ρ0)/ρ1) of 30.4%. The Tapped density in series [7] (tapped 200 times) turned out to be 0.52 g/mL. For the same compound, the “Solubility in pH 4.5 buffer” value in [8] is 2.3 mg/mL. Moreover, the “Solubility in pH 6.8 buffer” value in series [9] was found to be 0.90 mg/mL. Besides, the “TGA weight loss (150° C., %)” value in series [10] (crystalline salts) turned out to be 4.9%. Moreover, the “TGA weight loss (%, temp.)” value in series [10] (fumarate forms) is recorded as 4.9 (to 150° C.) %.
Turning to `COc1ccc2ncnc(Nc3ccc(Oc4cc5ncnn5cn4)c(C)c3)c2c1O[C@@H]1CCN(C)CC1(F)F` [Fumarate Type A, (R)-N-(4-([1,2,4]triazolo[1,5-c]pyrimidin-7-yloxy)-3-methylphenyl)-5-((3,3-difluoro-1-methylpiperidin-4-yl)oxy)-6-methoxyquinazolin-4-amine], the “Solubility in H2O” value in series [2] was at least 5000 µg/mL. Besides, in the series “Hygroscopicity by DVS”, the “Hygroscopicity (in words)” value is given as “slightly hygroscopic” and the “Weight change at 80% RH/25° C. by DVS” value is given as 0.8%. Besides, the “XRPD form change after grinding” value in series [11] (grinding ~5 min) is given as “No”. Moreover, the “XRPD form change after tableting” value in series [11] (tableting ~234 Mpa) is given as “No”. Moreover, in [4], the “Purity/Initial by HPLC area %” value stood at 100.1%, the “Form Change” value is reported as “No”, the “Purity change by HPLC (chemical stability) compared with amorphous freebase” value is on record as “lower purity change” and the “Solid form change by XRPD (physical stability)” value is reported as “no form change”. In series [5], this compound displayed a Contact angle of 20.3°. Further, the “Crystal habit of the particles” value in “Crystal habit by PLM” was “rod-like particles with regular shape”. Moreover, the “Solubility in pH 4.5 buffer” value in series [8] is listed as at least 8.4 mg/mL. In [10] (crystalline salts), the “TGA weight loss (150° C., %)” value is given as 1.9% and the “DSC endotherm (° C., peak)” value was found to be 167.6 °C. In addition, in series [10] (fumarate forms), the “DSC endotherm (° C., peak)” value worked out at 167.6 °C and the “TGA weight loss (%, temp.)” value is given as 1.9 (to 150° C.) %.
Regarding `COc1ccc2ncnc(Nc3ccc(Oc4cc5ncnn5cn4)c(C)c3)c2c1O[C@@H]1CCN(C)CC1(F)F` [Fumarate Type C, (R)-N-(4-([1,2,4]triazolo[1,5-c]pyrimidin-7-yloxy)-3-methylphenyl)-5-((3,3-difluoro-1-methylpiperidin-4-yl)oxy)-6-methoxyquinazolin-4-amine], the “Form conversion at ambient conditions” value in [1] is “Form conversion between Fumarate Type C and Fumarate Type B”. The “TGA weight loss (150° C., %)” value in series [10] (crystalline salts) came to 1.5%.
